In ChEMBL document CHEMBL1201862, “PubChem BioAssay data set” (2004):
The source made the active and inactive calls.

Tests used:
INS1 = experiment: beta cell apoptosis inhibitors, cytokine rescue, dose response, luminescence, retest (AID 449756); type: functional, cell-based; conditions: Rattus norvegicus;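 note: cell death triggered by IL-1 beta plus TNF-alpha plus IFN-gamma mixture; protective hits raise ATP signal compared with cytokine alone wells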
Cytochrome P450 2C9 = Cytochrome P450 2C9 (Homo sapiens, UniProt P11712)
Cytochrome P450 2C9, sequence (P11712 whole entry): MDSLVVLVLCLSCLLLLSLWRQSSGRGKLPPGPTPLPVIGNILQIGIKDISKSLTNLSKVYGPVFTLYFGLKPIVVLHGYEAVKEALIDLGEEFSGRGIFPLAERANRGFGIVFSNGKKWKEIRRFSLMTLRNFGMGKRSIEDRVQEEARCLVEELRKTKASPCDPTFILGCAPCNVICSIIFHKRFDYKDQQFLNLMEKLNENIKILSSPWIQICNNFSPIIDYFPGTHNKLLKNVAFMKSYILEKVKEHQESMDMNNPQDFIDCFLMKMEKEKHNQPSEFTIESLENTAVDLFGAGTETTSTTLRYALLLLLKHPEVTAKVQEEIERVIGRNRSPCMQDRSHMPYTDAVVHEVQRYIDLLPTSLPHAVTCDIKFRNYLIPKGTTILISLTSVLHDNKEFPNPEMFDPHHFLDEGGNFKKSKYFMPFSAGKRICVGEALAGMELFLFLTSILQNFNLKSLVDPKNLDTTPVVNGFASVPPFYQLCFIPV

[1] = target: T1, Rac GTPase-activating protein 1 (Homo sapiens, UniProt Q9H0H5); experiment: MgcRacGAP GTPase-activating activity inhibitors, confirmation, biochemical, ADP Hunter fluorescence, primary and confirmatory (AID 624330); type: functional
T1 sequence (Q9H0H5 whole entry): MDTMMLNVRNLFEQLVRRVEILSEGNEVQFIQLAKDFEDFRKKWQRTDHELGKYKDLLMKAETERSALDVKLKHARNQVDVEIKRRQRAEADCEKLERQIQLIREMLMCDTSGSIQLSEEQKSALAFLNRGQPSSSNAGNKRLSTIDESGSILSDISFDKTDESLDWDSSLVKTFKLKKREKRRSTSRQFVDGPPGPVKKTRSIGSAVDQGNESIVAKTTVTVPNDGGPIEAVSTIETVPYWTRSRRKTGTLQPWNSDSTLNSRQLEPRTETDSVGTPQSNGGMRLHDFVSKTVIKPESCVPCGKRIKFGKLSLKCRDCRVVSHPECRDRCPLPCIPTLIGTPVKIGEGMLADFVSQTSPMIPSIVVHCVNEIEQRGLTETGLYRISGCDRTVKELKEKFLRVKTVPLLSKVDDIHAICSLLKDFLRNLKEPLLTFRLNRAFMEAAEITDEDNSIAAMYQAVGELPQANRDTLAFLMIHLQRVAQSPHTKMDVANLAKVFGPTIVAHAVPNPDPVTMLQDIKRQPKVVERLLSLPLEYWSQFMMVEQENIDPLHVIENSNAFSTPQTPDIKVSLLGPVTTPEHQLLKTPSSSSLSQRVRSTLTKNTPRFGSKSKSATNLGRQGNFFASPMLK

[2] = Luminescence Cell-Based Dose Retest to Confirm Inhibitors of Cancer Stem Cells. [Related pubchem assays (depositor defined):AID2717, AID2721]; type: functional; conditions: Homo sapiens
[3] = Luminescence Cell-Based Dose Confirmation HTS to Identify Inhibitors of Platelet Dense Granule Release. [Related pubchem assays: 1663 (Primary HTS), 1678 (Summary of Project)]; type: functional
[4] = target: Luciferin 4-monooxygenase (Photinus pyralis, UniProt P08659); experiment: firefly luciferase enzyme inhibitors, dose response, biochemical, luminescence (AID 1891)
Luciferin 4-monooxygenase, sequence (P08659 whole entry): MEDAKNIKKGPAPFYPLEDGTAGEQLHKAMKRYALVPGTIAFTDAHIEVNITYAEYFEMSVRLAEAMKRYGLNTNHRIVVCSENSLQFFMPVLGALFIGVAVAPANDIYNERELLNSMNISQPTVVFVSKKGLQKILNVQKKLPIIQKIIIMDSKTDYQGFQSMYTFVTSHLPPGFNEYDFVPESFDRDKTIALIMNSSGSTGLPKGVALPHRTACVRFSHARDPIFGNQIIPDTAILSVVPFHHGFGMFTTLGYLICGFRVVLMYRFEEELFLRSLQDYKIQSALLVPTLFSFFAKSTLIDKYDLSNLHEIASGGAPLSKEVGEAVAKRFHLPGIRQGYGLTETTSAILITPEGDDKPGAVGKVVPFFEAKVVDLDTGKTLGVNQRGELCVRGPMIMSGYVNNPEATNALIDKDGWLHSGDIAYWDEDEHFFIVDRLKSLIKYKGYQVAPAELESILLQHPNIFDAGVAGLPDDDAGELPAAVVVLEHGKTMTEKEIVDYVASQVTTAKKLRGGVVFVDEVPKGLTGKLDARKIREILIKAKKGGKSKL

[5] = target: T2, Heat shock factor protein 1 (Mus musculus, UniProt P38532); experiment: inhibition of MG132-induced HSE-luciferase signal, confirmation, cell-based, NIH3T3, luminescence, dose retest (AID 2382); type: functional;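 note: NIH3T3 fibroblasts with HSF1-driven luciferase reporter stressed by proteasome inhibitor MG132; luminescence from HSF1-driven luciferase expression after 8 hours of MG132 stress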
T2 sequence (P38532 whole entry): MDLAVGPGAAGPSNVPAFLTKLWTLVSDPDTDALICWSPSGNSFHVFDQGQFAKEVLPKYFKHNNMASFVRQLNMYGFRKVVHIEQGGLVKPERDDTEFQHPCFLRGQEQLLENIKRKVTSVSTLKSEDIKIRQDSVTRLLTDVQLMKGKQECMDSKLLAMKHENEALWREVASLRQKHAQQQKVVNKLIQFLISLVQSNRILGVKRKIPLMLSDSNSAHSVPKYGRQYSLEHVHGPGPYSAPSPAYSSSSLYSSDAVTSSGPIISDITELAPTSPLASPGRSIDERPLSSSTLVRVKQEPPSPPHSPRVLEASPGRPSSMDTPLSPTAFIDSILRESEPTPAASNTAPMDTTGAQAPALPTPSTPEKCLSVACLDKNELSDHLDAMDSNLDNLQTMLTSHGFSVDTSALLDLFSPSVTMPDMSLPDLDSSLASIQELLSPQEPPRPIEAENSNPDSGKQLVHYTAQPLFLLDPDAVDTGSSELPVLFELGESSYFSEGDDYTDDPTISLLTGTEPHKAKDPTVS

[6] = test system: Streptococcus sp. 'group A'; experiment: growth inhibition of control SK(-) GAS strain, dose response, counter-screen for streptokinase expression inhibitor project, luminescence, kanamycin, BacTiterGlo, confirmation (AID 1900); type: functional, organism-based
Streptococcus = experiment: Group A Streptococcus viability loss, dose response, counter-screen for streptokinase expression inhibitor project, luminescence, BacTiterGlo (AID 1915); type: functional, organism-based;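 note: potency for reduction of bacterial viability or growth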
Streptokinase A = target: T3, Streptokinase A (Streptococcus pyogenes serotype M1, UniProt P10520); experiment: S. pyogenes streptokinase expression inhibitors, potency, dose response, plasminogen activation absorbance, OD405 (AID 1914); type: functional, Streptococcus pyogenes M1 GAS;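 note: secreted streptokinase activity via plasminogen activation per viability signal from cell pellet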
T3 sequence (P10520 whole entry): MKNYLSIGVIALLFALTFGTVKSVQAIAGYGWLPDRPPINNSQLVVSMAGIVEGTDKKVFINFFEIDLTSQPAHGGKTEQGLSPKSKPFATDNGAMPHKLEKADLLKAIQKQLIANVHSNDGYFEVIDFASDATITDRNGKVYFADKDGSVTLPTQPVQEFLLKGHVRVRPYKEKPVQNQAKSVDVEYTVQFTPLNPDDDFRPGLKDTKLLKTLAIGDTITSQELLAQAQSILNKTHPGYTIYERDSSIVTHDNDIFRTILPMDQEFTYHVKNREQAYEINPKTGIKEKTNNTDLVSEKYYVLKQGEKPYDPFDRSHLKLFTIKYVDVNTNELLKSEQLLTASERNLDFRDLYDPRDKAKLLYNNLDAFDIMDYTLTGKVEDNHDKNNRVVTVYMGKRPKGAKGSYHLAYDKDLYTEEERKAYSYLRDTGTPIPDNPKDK

Cytochrome P450 2C19 = Cytochrome P450 2C19 (Homo sapiens, UniProt P33261); experiment: Cytochrome panel assay with activity outcomes. Panel member name: p450-cyp2c19 Compounds with AC50 equal or less than 10 uM are considered active; type: functional; conditions: read-out: AC50
Cytochrome P450 2C19, sequence (P33261 whole entry): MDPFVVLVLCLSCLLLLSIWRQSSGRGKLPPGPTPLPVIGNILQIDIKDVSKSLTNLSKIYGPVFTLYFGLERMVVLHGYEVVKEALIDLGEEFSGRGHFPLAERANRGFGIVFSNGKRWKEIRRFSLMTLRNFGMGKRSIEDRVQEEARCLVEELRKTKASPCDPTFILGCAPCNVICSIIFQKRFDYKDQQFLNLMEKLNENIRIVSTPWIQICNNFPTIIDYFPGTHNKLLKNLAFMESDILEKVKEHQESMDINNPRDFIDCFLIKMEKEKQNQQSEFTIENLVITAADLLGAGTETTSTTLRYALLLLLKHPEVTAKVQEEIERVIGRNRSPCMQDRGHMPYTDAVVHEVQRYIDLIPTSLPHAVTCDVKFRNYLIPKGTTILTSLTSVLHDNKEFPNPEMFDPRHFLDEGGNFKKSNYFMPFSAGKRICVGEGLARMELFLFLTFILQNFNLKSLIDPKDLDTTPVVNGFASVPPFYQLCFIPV

Cytochrome P450 3A4 = Cytochrome P450 3A4 (Homo sapiens, UniProt P08684);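 note: CYP3A4 tested as one member of a cytochrome P450 panel screen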
Cytochrome P450 3A4, sequence (P08684 whole entry): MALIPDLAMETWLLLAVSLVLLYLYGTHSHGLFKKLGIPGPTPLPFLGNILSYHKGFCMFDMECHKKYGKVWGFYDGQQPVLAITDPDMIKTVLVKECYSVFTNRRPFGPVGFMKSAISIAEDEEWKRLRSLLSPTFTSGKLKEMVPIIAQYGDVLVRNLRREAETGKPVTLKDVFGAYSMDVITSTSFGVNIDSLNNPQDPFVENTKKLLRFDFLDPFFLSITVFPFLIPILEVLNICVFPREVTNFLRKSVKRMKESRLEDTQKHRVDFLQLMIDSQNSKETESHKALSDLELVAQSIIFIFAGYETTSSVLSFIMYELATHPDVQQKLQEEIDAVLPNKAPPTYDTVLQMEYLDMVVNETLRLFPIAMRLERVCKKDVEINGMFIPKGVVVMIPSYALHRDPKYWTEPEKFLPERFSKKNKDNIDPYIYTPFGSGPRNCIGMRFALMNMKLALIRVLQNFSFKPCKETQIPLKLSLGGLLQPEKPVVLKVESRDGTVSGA

[7] = cytotoxicity toward NIH3T3 fibroblasts, dose response, counter-screen, cell-based, ATP luminescence, mouse fibroblasts (AID 2010); type: functional;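 note: cells exposed to compound for about 90 hours before reading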
[8] = inhibitors of intracellular T. cruzi replication, confirmation, NIH3T3 host cells, beta-gal luminescence (AID 2044); type: functional, cell-based;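 note: intracellular parasites grown in NIH/3T3 mouse fibroblasts as host cells; luminescent beta-galactosidase reporter signal from transgenic T. cruzi replicating inside host cells; inhibitors lower the luminescence signal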

C/C(=N\Nc1nc(C)cc(-c2ccccc2)n1)c1cccc(N)c1
AC50 (INS1): 2.76 µM (active)

O=S1(=O)C=C(N2CCOCC2)c2ccccc21
AC50 (Cytochrome P450 2C9): 39.8 µM (inconclusive)

CC(=O)Nc1ccc(Nc2ccccc2)cc1
IC50 [1]: 75.6 µM (active)

O=C(Cc1ccc(Cl)c(Cl)c1)Nc1ccc(SC(F)F)cc1
AC50 [2]: 4.04 µM (active)

COCCNC(=O)COc1ccc(Nc2ccccc2)cc1
IC50 [1]: 47.6 µM (active)

COc1ccc(CN2CCCC(C(=O)c3cccc(OC(C)C)c3)C2)cc1Cn1cccn1 (stereo not given)
EC50 [3]: > 112 µM (not active)
EC50 [4]: > 112 µM (not active)

O=[N+]([O-])C(=C\Nc1ccccc1O)/C=N/c1ccccc1O
IC50 [1]: 58.9 µM (active)

CN(C)CCOC(=O)CCc1ccccc1
EC50 [3]: > 112 µM (not active)
EC50 [4]: > 112 µM (not active)

CC1CCN(CC(=O)Nc2ccc(S(=O)(=O)NC3CC3)cc2)CC1
EC50 [5]: > 195 µM (not active)
IC50 [1]: 179 µM (active)

CCCCn1c(N)c(N(Cc2ccccc2OC)C(=O)C(C)Oc2ccc(Cl)cc2)c(=O)[nH]c1=O (stereo not given)
EC50 [3]: > 112 µM (not active)
EC50 [4]: > 112 µM (not active)

O=C(O)/C=C/c1cccc(NC(=O)c2ccccc2)c1
EC50 [3]: 17.4 µM (active)
EC50 [4]: 4.49 µM (active)

Clc1ccccc1-c1cncnc1NCc1cccs1
AC50 (Cytochrome P450 2C9): 0.794 µM (inconclusive)

N#Cc1ccc(CN2CCC3(CC2)CCN(C(=O)c2cnccn2)CC3)cc1
AC50 (Cytochrome P450 2C9): 39.8 µM (inconclusive)

Cc1ccccc1CNc1ccc(C(CC(N)=O)NC(=O)c2ccccc2)cc1[N+](=O)[O-] (stereo not given)
AC50 [2]: 3.49 µM (active)

O=C(Cc1ccccc1)NC(=S)Nc1cc(C(F)(F)F)ccc1Cl
AC50 (Cytochrome P450 2C9): 3.55 µM (inconclusive)

Cc1cc(C)c(-c2noc(C(=O)OC(C)(C)C)c2C(=O)OC(C)(C)C)c(C)c1
EC50 [6]: 10.4 µM (active)
AC50 (Cytochrome P450 2C9): 12.6 µM (inconclusive)
EC50 (Streptococcus): > 150 µM (not active)
EC50 (Streptokinase A): 11.5 µM (active)
AC50 (Cytochrome P450 2C19): 11.2 µM (inconclusive)

Cc1cc(C(F)(F)F)nn1CC(=O)Nc1cccnc1
AC50 (Cytochrome P450 3A4): 25.1 µM (inconclusive)
AC50 (Cytochrome P450 2C9): 39.8 µM (inconclusive)
AC50 (Cytochrome P450 2C19): 22.4 µM (inconclusive)

Cc1ccccc1-c1ccc(CN2CCN(C)C(CCO)C2)cc1 (stereo not given)
EC50 [7]: 4.69 µM (active)
AC50 [2]: 2.9 µM (active)
EC50 [8]: 0.828 µM (active)

CC(OC(=O)CCNC1=NS(=O)(=O)c2ccccc21)C(=O)Nc1ccc(N(C)C)cc1 (stereo not given)
IC50 [1]: 54.7 µM (active)

O=C(COc1ccc2ccccc2c1)NNC(=O)Cc1cccc2ccccc12
AC50 (Cytochrome P450 3A4): 14.1 µM (inconclusive)
AC50 (Cytochrome P450 2C19): 0.398 µM (inconclusive)

CC(C)C(C(=O)NCC1CCCO1)N(Cc1ccco1)C(=O)CNS(=O)(=O)c1ccc(F)cc1 (stereo not given)
AC50 (Cytochrome P450 2C9): 39.8 µM (inconclusive)
AC50 (Cytochrome P450 2C19): 11.2 µM (inconclusive)

Cc1cccc(N2C(S)=C(C#N)C(=O)NC2c2cccs2)c1 (stereo not given)
IC50 [1]: 110 µM (active)

Cc1nn(CC(=O)Nc2cccnc2)c(C)c1[N+](=O)[O-]
EC50 [3]: 7.26 µM (active)
EC50 [4]: > 112 µM (not active)

Cc1cc(NC(=S)NC(=O)CC(C)C)ccc1Br
AC50 (Cytochrome P450 3A4): 20 µM (inconclusive)
AC50 (Cytochrome P450 2C9): 0.0447 µM (inconclusive)

Cc1ccc(-c2nn(-c3ccccc3)cc2/C=C/C(=O)Nc2cccc(S(N)(=O)=O)c2)cc1
AC50 (INS1): 3.29 µM (active)

CC1(C)CC(=O)C(C(C#Cc2ccccc2)C2=C(O)CC(C)(C)CC2=O)=C(O)C1
AC50 (Cytochrome P450 3A4): 31.6 µM (inconclusive)

OC(CNCC1COc2ccccc2O1)COCc1cccs1 (stereo not given)
IC50 [1]: 76.9 µM (active)

C=C(Br)Cn1c(CCCC)nc2ccccc21
AC50 [2]: 0.514 µM (active)

COCCn1c(=O)c(-c2cn(C)c3ccccc23)nc2cnc(OCc3ccccc3)nc21
AC50 (Cytochrome P450 3A4): 7.94 µM (inconclusive)

Cc1ccsc1/C=N/Nc1nc2ccccc2[nH]1
IC50 [1]: 71.6 µM (active)

O=C(N/N=C/c1ccc(OC2CSC2)cc1)c1ccccc1
AC50 [2]: 2.49 µM (active)

O=C(CC1(O)C(=O)N(Cc2ccccc2)c2ccccc21)c1ccncc1 (stereo not given)
EC50 [3]: > 112 µM (not active)
EC50 [4]: > 112 µM (not active)

CCOC(=O)Nc1ccc2nc(Sc3ccc(Cl)cc3)sc2c1
AC50 [2]: 1.53 µM (active)

CS(=O)(=O)N1CCC2(CCCN(C(=O)Nc3cccc(F)c3)C2)CC1
AC50 (Cytochrome P450 3A4): 20 µM (inconclusive)

CC1(C)C(=O)N=C2C1=C(O)C(=O)c1ccccc12
AC50 (Cytochrome P450 3A4): 31.6 µM (inconclusive)
AC50 (Cytochrome P450 2C9): 25.1 µM (inconclusive)
AC50 (Cytochrome P450 2C19): 31.6 µM (inconclusive)

CCO/C(O)=C1/C(C)=Nc2ncnn2C1c1cccnc1 (stereo not given)
AC50 (Cytochrome P450 2C9): 25.1 µM (inconclusive)
AC50 (Cytochrome P450 2C19): 22.4 µM (inconclusive)

O=[N+]([O-])c1ccc(N2CCC(=NOCc3ccc(Cl)cc3)CC2)cc1
AC50 (Cytochrome P450 3A4): 35.5 µM (inconclusive)
AC50 (Cytochrome P450 2C9): 14.1 µM (inconclusive)
AC50 (Cytochrome P450 2C19): 4.47 µM (inconclusive)

N=C(NOC(=O)c1ccc(Cl)cc1)c1[nH]ncc1Br
EC50 [3]: 4.36 µM (active)
EC50 [4]: 0.882 µM (active)

CCCCC[C@H](O)/C=C/[C@H]1[C@H](O)CC(=O)[C@@H]1CCCCCCC(=O)O [ALPROSTADIL]
EC50 [3]: < 0.088 µM (active)
EC50 [4]: > 112 µM (not active)

CN(C(S)=Nc1ccc(SC(F)F)cc1)C(c1ccccc1)c1ccccc1
AC50 [2]: 4.57 µM (active)
